Consider two compounds from patent US20120157396A1, “PYRAZINAMIDE FOR IMMUNOSTIMULATION AND THE TREATMENT OF LEISHMANIASES” (priority 2009, published 2012).

For one series, the system named is Leishmania. The series can be described thus: J774 cells infected with old- and new-world Leishmania species, 48 hr post treatment. The format is cell-based. The source says:
FIG. 8. Effect of PZA on J774 cells infected with Leishmania 48 hr post treatment. Data expressed as % survival compared to untreated control (100% survival). Mean±SD of 3 independent determinations.
FIG. 9. A. Effect of 5-Chloro PZA on J774 cells infected with Leishmania, 48 hr post treatment. Data expressed as % survival compared to untreated control (100% survival). Mean±SD of 3 independent determinations. […] B. Cytokine IL-2 production—5-Chloro PZA stimulated 2× more proinflammatory cytokines than PZA, even in Leishmania-infected macrophages (similar results with IFNγ, TNFα, NO).

In another series the test system is J774 cells. Briefly: J774 cell activation, surface markers by flow cytometry. The format is cell-based, murine. The conditions noted are these: 10 and 100 μM, with or without L. major. As for the experimental part:
Because of the strong in vivo effect of PZA, we studied the effect of treatment on macrophages. First, we looked at activation markers and cytokine secretion by J774 cells (a murine macrophage cell line) following treatment with PZA (10 and 100 μM) in the presence or absence of L. major infection (1:5 macrophage:parasite ratio) were examined. As a positive control, cells were exposed to a mixture of IFN-γ and LPS, known to increase the level of activation. Expression of surface molecules was determined in unstimulated cells, and on infected, untreated cultures. Twenty-four hours after infection and/or treatment, cells were collected and stained with fluorescent antibodies against the co-stimulatory molecules CD80 and CD86, as well as MHC Class II, and analyzed by flow cytometry.
J774 cells or bone marrow-derived cells were seeded onto 24-well plates at a concentration of 5×10^5 cells/ml. Twenty-four hours later, PZA was added to the wells at different concentrations in the absence or presence of L. major (1:5 parasite ratio). In some experiments, J774 cells were treated with amphotericin B (0.1, 0.5, or 1 μg/ml). […] For each sample, at least 50,000 cells were analyzed. The data were collected and analyzed using CELLQuest software and a FACScalibur flow cytometer (Becton Dickinson, San Jose, Calif.).
Background: In flow cytometry, cells or beads pass a laser one at a time.

For series [1], the system named is bone marrow-derived dendritic cells. Briefly: Cytokine and NO production in bone marrow-derived dendritic cells. It counts as cell-based, C57BL/6 mice. More on the design: unit not given here. Particulars: dendritic cell, drug 100 μM.
The conditions of series [2]: PZA-treated children, Zhu et al.; cited from earlier work.
A further series concerns L. major. The format is in vivo, C57BL/6 mice. The procedure:
Mouse Model of CL. To assess the in vivo efficacy of PZA in a relevant in vivo model of cutaneous leishmaniasis, C57BL/6 mice were intradermally infected with 5×10^5 L. major parasites per ear (n=6 mice, 12 ears). One day after infection, mice were treated orally with PZA at several concentrations (900-150 mg/kg) for four weeks, five days a week. […] Parasite burden in ears was determined at 5 weeks post infection in all experimental groups.
Mice (n=6) were anesthetized with isoflurane (Abbott Laboratories, Chicago, Ill.) and vaccinated intradermally in both ears with 5×10^5 L. major promastigotes in a volume of 10 μl using a 27½ G needle. PZA was diluted in water and administered by oral gavage in a 0.2 ml volume. A control group was treated with water containing DMSO (3.8%). The timetable for the experiment was as follows: day 0, infection; days 1-5, 8-12, 15-19 and 22-26, drug administration, and day 70, sacrifice. Lesion size was monitored 1-2 times per week by measuring the lesion diameter with a vernier caliper. Mice were sacrificed by CO2 inhalation.
Parasite loads in the ears were determined as previously described. Briefly, the ventral and dorsal sheets of the infected ears were separated and deposited in RPMI containing 100 U/ml penicillin/100 μg/ml streptomycin and Liberase CI enzyme blend (Boehringer Mannheim, 0.5 mg/ml). Ears were incubated for 60 min at 37° C. The sheets were dissociated using a handheld tissue homogenizer. The homogenates were filtered using a 70 μm an cell strainer (BD Falcon, San Jose, Calif.) and serially diluted in a 96-well flat bottom microtiter plate containing biphasic medium prepared using 50 μl NNN medium containing 20% of defibrinated rabbit blood overlaid with 100 μl medium 199. The number of viable parasites in each ear was estimated from the highest dilution at which promastigotes could be grown out after 7 days of incubation at 26° C.

The next series relates to L. donovani. As for the experimental part:
To induce visceral leishmaniasis, we inoculated mice (n=8) intravenously with 5×10^6 L. donovani 1S and treated them with PZA (900-150 mg/kg) for 3 wks, 5 days/wk. The lowest dose was equivalent to dose of PZA used in humans (2 g/day). A group of mice treated with vehicle (3.8% DMSO in water) was included as a control. C57BL/6 mice infected with L. donovani typically show detectable parasites in liver and spleens for 8-12 wk. […] We euthanized mice 3 wks after the initiation of the experiment and determined total body weight, liver and spleen weights, and number of parasites in livers.

Setting [3] is: mouse models of VL (FIG. 8 legend).

Consider `NC(=O)c1cnccn1` [PZA, pyrazinamide], for which the “killing of Leishmania species” value in the series with Leishmania (J774 cells infected with Leishmania, 48 hr post treatment (FIG. 8)) was “killed old-world and new-world VL leishmanial species”. In addition, the “expression of costimulatory molecules CD80, CD86 and MHC Class II” value in the series on J774 cells is given as “increased expression”. In series [1] (infected with L. major (Lm)), this compound returned an NO production of 699 ± 612 and a TNF-α production of 1856 ± 125. In series [1] (uninfected), this compound came in with an NO production of 545 ± 221 and a TNF-α production of 1654 ± 546. For the same compound, in series [2], the serum concentration is 41000 ng/mL. In addition, the “parasite burden in ears after healing” value with L. major (12 weeks post infection) is “comparable among all experimental groups”. Also, the “average lesion size compared with untreated mice” value with L. major (PZA oral 900-150 mg/kg, four weeks, five days a week, all time points) is recorded as “significant (P=0.0001) reduction of the average lesion size”. In the series with L. major (PZA oral, week 6 post infection), the “decrease of parasite burden in infected ears compared to untreated control” value turned out to be 100 fold. Also, the “body weight of experimental animals” value in the series with L. major (mouse, in vivo) was “no significant differences in body weight”. Further, the “size of livers and spleens” value with L. donovani (PZA 900-150 mg/kg, 3 wks) is given as “significantly reduced”. The liver parasites result in the series on L. donovani (PZA at all doses tested (900-150 mg/kg), 3 wks) is recorded as “significantly decreased”. In the series with L. donovani (setting [3]), the hepatomegaly and splenomegaly entry was “prevented hepatomegaly and splenomegaly”; the “reduction of liver parasites” value is reported as 2-4 log 10.

`NC(=O)c1cnc(Cl)cn1` [5-Cl PZA, 5-chloro pyrazinamide]: in the series with Leishmania (old- and new-world leishmanial species in J774 cells), the “activity at killing leishmanial species relative to PZA” value is recorded as 10 fold. Besides, in the series on Leishmania (variety of old- and new-world leishmanial species in J774 cells, 48 hr), the MIC (usually the lowest concentration that inhibits growth of the organism) was in the range of 1 to 13 µM. Moreover, in the series with J774 cells, the “expression of costimulatory molecules CD80, CD86 and MHC Class II” value was “enhanced”. Besides, the NO production was determined as 876 ± 172 in series [1] (infected with L. major (Lm)) and 745 ± 211 in series [1] (uninfected). The TNF-α production came out at 2986 ± 566 in series [1] (infected with L. major (Lm)) and 17684 ± 678 in series [1] (uninfected). Further, the “average lesion size compared to untreated controls” value with L. major (5-Cl PZA oral, 150 mg/kg) is “significant reduction in average lesion size”.
